Test results reported in the supplement of paper PMC10307832.

These cell lines were tested with CCOC1=CC=CC=C1N=NC2=C(NN(C2=O)C3=NC(=CS3)C4=CC=CC=C4)C [BAM7] + O=C(c1cc(Cc2n[nH]c(=O)c3ccccc23)ccc1F)N1CCN(C(=O)C2CC2)CC1 [Olaparib] (partner 8 µM) (assay: relative viability (nuclei count vs DMSO), 5 days (fraction); higher = more cells survive). Details: first compound 50 µM.
Method in brief: (§1)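 Relative viability equals treated-well nuclei counts divided by vehicle-well nuclei counts. Counts came from 4× images of lung cancer cell lines grown in 1536-well plates for 5 days after pin-tool dosing on the day after seeding. Dosing used one drug alone or a fixed anchor-drug dose plus five library-drug doses (not always all listed) in √10 steps, and values are medians of duplicate plates.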
With NCI-H520 the relative viability was 0.344. In the case of NCI-H2126, the relative viability is reported as 0.92. EMC-BAC-2 was tested, and the relative viability was 0.565. NCI-H2085 showed a relative viability of 0.786. In the case of Calu-6, the relative viability is reported as 0.531. HCC-366 was tested, and the relative viability was 0.307. In the case of NCI-H1666, the relative viability is reported as 0.781. NCI-H596 was tested, and the relative viability was 0.697. LK-2 showed a relative viability of 0.666. Work on NCI-H2087 yielded a relative viability of 0.456. NCI-H2342 showed a relative viability of 0.341. With SK-MES-1 the relative viability was 0.704. H3255 was tested, and the relative viability was 0.405. Cell Line COR-L23 has a relative viability of 0.346. COR-L 105 showed a relative viability of 0.707. IA-LM was tested, and the relative viability was 0.775. In the case of LOU-NH91, the relative viability is reported as 0.893. ChaGo-K-1 gave a relative viability of 0.396. For NCI-H2170, the relative viability was 0.476. NCI-H2405 was tested, and the relative viability was 0.908. Cell Line HOP-62 has a relative viability of 0.518. In the case of HCC-44, the relative viability is reported as 0.987. With A549 the relative viability was 0.476. In the case of SW 900, the relative viability is reported as 0.786. NCI-H1648 showed a relative viability of 0.558. NCI-H2009 gave a relative viability of 0.663. In the case of NCI-H661, the relative viability is reported as 0.725. SK-LU-1 was tested, and the relative viability was 0.55. For NCI-H1299, the relative viability was 0.923. Cell Line CAL-12T has a relative viability of 0.711. With NCI-H2228 the relative viability was 0.585. For NCI-H2023, the relative viability was 0.387.

The cell lines below were run with CCn1c(-c2nonc2N)nc2c(C#CC(C)(C)O)ncc(OC[C@H]3CCCNC3)c21 + NC(=O)Nc1cc(-c2cccc(F)c2)sc1C(=O)N[C@H]1CCCNC1 [AZD7762] (partner 0.2 µM) in the same assay as above. Details: first compound 0.01 µM.
Method in brief: as §1
NCI-H522 showed a relative viability of 0.726. NCI-H727 gave a relative viability of 0.586. With NCI-H1993 the relative viability was 0.836. For NCI-H838, the relative viability was 0.957. Cell Line LCLC-103H has a relative viability of 0.752. Cell Line NCI-H2126 has a relative viability of 0.995. With EMC-BAC-2 the relative viability was 1.11. NCI-H2085 gave a relative viability of 0.966. Cell Line HCC-366 has a relative viability of 0.332. NCI-H1666 showed a relative viability of 0.806. NCI-H596 was tested, and the relative viability was 1.18. LK-2 showed a relative viability of 0.457. In the case of NCI-H2087, the relative viability is reported as 1.31. Work on NCI-H2342 yielded a relative viability of 0.444. Work on H3255 yielded a relative viability of 0.857. Work on LOU-NH91 yielded a relative viability of 0.78. Work on ChaGo-K-1 yielded a relative viability of 0.87. Cell Line NCI-H2170 has a relative viability of 0.756. With NCI-H2405 the relative viability was 0.773. HOP-62 gave a relative viability of 0.761. Work on HCC-44 yielded a relative viability of 1.03. For SW 900, the relative viability was 0.656. NCI-H1648 gave a relative viability of 0.601. In the case of CAL-12T, the relative viability is reported as 0.556.

Same assay, conditions: first compound 0.03162 µM
Cell Line NCI-H522 has a relative viability of 0.763. With NCI-H727 the relative viability was 0.6. Work on NCI-H1703 yielded a relative viability of 0.123. NCI-H1993 showed a relative viability of 0.954. NCI-H838 was tested, and the relative viability was 1.02. LCLC-103H showed a relative viability of 0.862. For NCI-H2126, the relative viability was 0.982. With EMC-BAC-2 the relative viability was 1.04. NCI-H2085 gave a relative viability of 0.982. HCC-366 was tested, and the relative viability was 0.239. NCI-H1666 gave a relative viability of 0.827. Work on LK-2 yielded a relative viability of 0.446. NCI-H2342 showed a relative viability of 0.482. With H3255 the relative viability was 0.943. Work on LOU-NH91 yielded a relative viability of 0.693. ChaGo-K-1 was tested, and the relative viability was 0.885. Work on NCI-H2170 yielded a relative viability of 0.947. Cell Line NCI-H2405 has a relative viability of 0.77. For HOP-62, the relative viability was 0.677. In the case of HCC-44, the relative viability is reported as 0.946. In the case of SW 900, the relative viability is reported as 0.659. NCI-H1648 gave a relative viability of 0.728. CAL-12T showed a relative viability of 0.651.

Same assay, conditions: first compound 0.1 µM
With NCI-H522 the relative viability was 0.838. For NCI-H727, the relative viability was 0.768. NCI-H1993 gave a relative viability of 0.923. NCI-H838 showed a relative viability of 0.988. Work on LCLC-103H yielded a relative viability of 0.743. Cell Line NCI-H2126 has a relative viability of 1. Cell Line EMC-BAC-2 has a relative viability of 1.08. Work on NCI-H2085 yielded a relative viability of 1.01. HCC-366 was tested, and the relative viability was 0.287. For NCI-H1666, the relative viability was 0.839. NCI-H596 was tested, and the relative viability was 1.12. In the case of LK-2, the relative viability is reported as 0.291. In the case of NCI-H2087, the relative viability is reported as 1.13. Cell Line NCI-H2342 has a relative viability of 0.498. H3255 showed a relative viability of 1. For LOU-NH91, the relative viability was 0.755. ChaGo-K-1 gave a relative viability of 0.868. In the case of NCI-H2170, the relative viability is reported as 0.86. In the case of NCI-H2405, the relative viability is reported as 0.792. Cell Line HOP-62 has a relative viability of 0.732. Work on HCC-44 yielded a relative viability of 0.997. In the case of SW 900, the relative viability is reported as 0.712. In the case of NCI-H1648, the relative viability is reported as 0.615. CAL-12T showed a relative viability of 0.567.

Same assay, conditions: first compound 0.3162 µM
Cell Line NCI-H522 has a relative viability of 0.686. Cell Line NCI-H727 has a relative viability of 0.631. Work on NCI-H1703 yielded a relative viability of 0.0983. With NCI-H1993 the relative viability was 0.738. Cell Line NCI-H838 has a relative viability of 0.855. LCLC-103H was tested, and the relative viability was 0.668. With NCI-H2126 the relative viability was 1.02. EMC-BAC-2 was tested, and the relative viability was 0.94. NCI-H2085 showed a relative viability of 0.954. With HCC-366 the relative viability was 0.273. For NCI-H1666, the relative viability was 0.804. Work on NCI-H596 yielded a relative viability of 1.21. In the case of LK-2, the relative viability is reported as 0.339. With NCI-H2087 the relative viability was 1.35. In the case of NCI-H2342, the relative viability is reported as 0.534. H3255 showed a relative viability of 0.839. For LOU-NH91, the relative viability was 0.689. ChaGo-K-1 was tested, and the relative viability was 0.836. NCI-H2170 showed a relative viability of 0.84. Cell Line NCI-H2405 has a relative viability of 0.731. Cell Line HOP-62 has a relative viability of 0.577. With HCC-44 the relative viability was 1.12. In the case of SW 900, the relative viability is reported as 0.575. NCI-H1648 showed a relative viability of 0.686. CAL-12T was tested, and the relative viability was 0.624.

Same assay, conditions: first compound 1 µM
NCI-H522 showed a relative viability of 0.772. Work on NCI-H727 yielded a relative viability of 0.576. With NCI-H1703 the relative viability was 0.113. NCI-H1993 was tested, and the relative viability was 0.725. NCI-H838 showed a relative viability of 0.9. LCLC-103H was tested, and the relative viability was 0.696. NCI-H2126 was tested, and the relative viability was 1.04. Cell Line EMC-BAC-2 has a relative viability of 1.17. NCI-H2085 showed a relative viability of 1. HCC-366 gave a relative viability of 0.241. With NCI-H1666 the relative viability was 0.876. Cell Line NCI-H596 has a relative viability of 1.06. With LK-2 the relative viability was 0.303. Cell Line NCI-H2087 has a relative viability of 1.42. NCI-H2342 showed a relative viability of 0.455. H3255 gave a relative viability of 0.846. Work on LOU-NH91 yielded a relative viability of 0.68. With ChaGo-K-1 the relative viability was 0.758. Cell Line NCI-H2170 has a relative viability of 0.941. In the case of NCI-H2405, the relative viability is reported as 0.721. For HOP-62, the relative viability was 0.516. Cell Line HCC-44 has a relative viability of 1.08. SW 900 showed a relative viability of 0.56. NCI-H1648 was tested, and the relative viability was 0.673. CAL-12T showed a relative viability of 0.708.

These cell lines were tested with CCn1c(-c2nonc2N)nc2c(C#CC(C)(C)O)ncc(OC[C@H]3CCCNC3)c21 + Nc1ncn([C@H]2C[C@H](O)[C@@H](CO)O2)c(=O)n1 [Decitabine] (partner 2 µM) in the same assay as above. Details: first compound 0.01 µM.
Method in brief: as §1
Work on NCI-H522 yielded a relative viability of 0.656. For NCI-H727, the relative viability was 1.03. With NCI-H1650 the relative viability was 0.355. Work on NCI-H1993 yielded a relative viability of 0.534. SW 1573 gave a relative viability of 0.462. For NCI-H838, the relative viability was 0.452. LCLC-103H gave a relative viability of 0.726.
